Experimental data from patent US20230203081A1, “LINCOSAMIDE ANTIBIOTICS AND USES THEREOF” (President and Fellows of Harvard College, priority 2020, published 2023).
Values after ≈ are worked out from the molar mass of the structure shown.

How the values were obtained:
Type in all cases: cell-based
E. coli armA = test: microbe, parasite or virus in culture; settings: Escherichia coli, E. coli armA
Summary of the method: (§1)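 Per CLSI, MICs by broth microdilution or agar dilution; strains other than streptococci and anaerobes were sub-cultured overnight at 35° C on blood agar, with a final broth inoculum of 5×10^5 CFU/mL.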

E. coli ΔTolC = test: microbe, parasite or virus in culture; settings: Escherichia coli, E. coli ΔTolC
Summary of the method: as §1

E. faecium Clinical VRE = test: MIC (broth microdilution or agar dilution, CLSI); settings: Enterococcus faecium; E. faecium Clinical VRE; read-out: MIC
Summary of the method: (§2)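 CLSI MIC, broth microdilution or agar dilution; compound 128-0.06 μg/mL, 2.5% DMSO final; triplicate. Anaerobes (e.g. clostridia) and streptococci run by specialized procedures. Other strains: overnight 35° C on blood agar, CaMHB, 0.5 McFarland, inoculum 5×10^5 CFU/mL.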

E. faecium Line R & VRE = test: MIC (broth microdilution or agar dilution, CLSI); settings: Enterococcus faecium, E. faecium Line R & VRE, read-out: MIC
Summary of the method: as §2

E. faecium VRE = test: MIC (broth microdilution or agar dilution, CLSI); settings: Enterococcus faecium; E. faecium VRE; read-out: MIC
Summary of the method: as §2

P. aeruginosa ATCC 27853 = test: MIC (broth microdilution or agar dilution, CLSI); settings: Pseudomonas aeruginosa, ATCC27853; P. aeruginosa ATCC 27853; read-out: MIC
Summary of the method: as §2

S. aureus MRSA = test: MIC (broth microdilution or agar dilution, CLSI); settings: Staphylococcus aureus
Summary of the method: as §2

S. aureus cErmA = test: MIC (broth microdilution or agar dilution, CLSI); settings: Staphylococcus aureus; S. aureus cErmA; read-out: MIC
Summary of the method: as §2

A. baumannii ATCC 19606 = test: MIC (broth microdilution or agar dilution, CLSI); settings: Acinetobacter baumannii, ATCC19606; A. baumannii ATCC 19606; read-out: MIC
Summary of the method: as §1

E. coli ATCC 25922 = test: MIC (broth microdilution or agar dilution, CLSI); settings: Escherichia coli, ATCC25922; E. coli ATCC 25922; read-out: MIC
Summary of the method: as §1

E. coli LptD = test: MIC (broth microdilution or agar dilution, CLSI); settings: Escherichia coli, E. coli LptD; read-out: MIC
Summary of the method: as §1

E. faecalis ATCC 29212 = test: MIC (broth microdilution or agar dilution, CLSI); settings: Enterococcus faecalis, ATCC29212, E. faecalis ATCC 29212; read-out: MIC
Summary of the method: as §1

[1] = system: E. faecalis MMX 847; cErmB; test: MIC (broth microdilution or agar dilution, CLSI); settings: Enterococcus faecalis; E. faecalis MMX 847; cErmB; read-out: MIC
Summary of the method: as §1

K. oxytoca Clinical = test: MIC (broth microdilution or agar dilution, CLSI); settings: Klebsiella oxytoca; K. oxytoca Clinical; read-out: MIC
Summary of the method: as §1

S. aureus ATCC 29213 = test: MIC (broth microdilution or agar dilution, CLSI); settings: Staphylococcus aureus, ATCC29213, S. aureus ATCC 29213; read-out: MIC
Summary of the method: as §1

S. aureus ATCC 700699 = test: MIC (broth microdilution or agar dilution, CLSI); settings: Staphylococcus aureus, ATCC700699; S. aureus ATCC 700699; read-out: MIC
Summary of the method: as §1

[2] = system: S. aureus ATCC BAA-1707 (MRSA); test: MIC (broth microdilution or agar dilution, CLSI); settings: Staphylococcus aureus; S. aureus ATCC BAA-1707 (MRSA); read-out: MIC
Summary of the method: as §1

S. aureus hVISA = test: MIC (broth microdilution or agar dilution, CLSI); settings: Staphylococcus aureus; S. aureus hVISA; read-out: MIC
Summary of the method: as §1

S. pneumoniae ATCC 49619 = test: MIC (broth microdilution or agar dilution, CLSI); settings: Streptococcus pneumoniae, ATCC49619, S. pneumoniae ATCC 49619; read-out: MIC
Summary of the method: as §1

S. pneumoniae ATCC 6303 = test: MIC (broth microdilution or agar dilution, CLSI); settings: Streptococcus pneumoniae, ATCC6303; S. pneumoniae ATCC 6303; read-out: MIC
Summary of the method: as §1

[3] = system: S. pneumoniae MMX 3028 cErmB; test: MIC (broth microdilution or agar dilution, CLSI); settings: Streptococcus pneumoniae, MMX3028CERMB; S. pneumoniae MMX 3028 cErmB; read-out: MIC
Summary of the method: as §1

[4] = system: S. pneumoniae MMX 3031 cMefA; test: MIC (broth microdilution or agar dilution, CLSI); settings: Streptococcus pneumoniae, MMX3031CMEFA, S. pneumoniae MMX 3031 cMefA; read-out: MIC
Summary of the method: as §1

S. pyogenes ATCC 19615 = test: MIC (broth microdilution or agar dilution, CLSI); settings: Streptococcus pyogenes, ATCC19615, S. pyogenes ATCC 19615; read-out: MIC
Summary of the method: as §1

[5] = system: S. pyogenes MMX 946; cErmB; test: MIC (broth microdilution or agar dilution, CLSI); settings: Streptococcus pyogenes; S. pyogenes MMX 946; cErmB; read-out: MIC
Summary of the method: as §1

E. faecalis VRE [6] = test: MIC (CLSI), first E. faecalis VRE line of Table 4; settings: Enterococcus faecalis; E. faecalis VRE (Table 4, first VRE line); read-out: MIC
Protocol: (§3) Minimum inhibitory concentrations (MICs) were determined by broth microdilution method or agar dilution method following the Clinical and Laboratory Standards Institute guidelines. Standard bacterial strains were obtained from American Type Culture Collection (ATCC). Other bacterial strains were obtained from hospitals and commercial sources, so noted in Table 11. Before the start of the MIC experiment, standard and test compound stock solutions were prepared in dimethyl sulfoxide (DMSO, Aldrich D2650) at a stock concentration of 5,120 μg/mL. The compound concentration range typically employed for each experiment was 128-0.06 μg/mL (2.5% final DMSO concentration). Clindamycin was used as a comparator in all experiments and each experiment was performed in triplicate. Specialized procedures were employed for streptococcal and anaerobic strains. All other bacterial strains were sub-cultured on blood agar plates (tryptic soy agar with 5% sheep blood, Hardy Diagnostics) and incubated overnight at 35° C. Organisms were suspended in cation-adjusted Mueller-Hinton broth (CaMHB, BD 212322) and optical density was adjusted to 0.5 McFarland standard. Suspensions were further diluted to obtain a final inoculum of 5×10^5 CFU/mL for broth microdilution experiments.

E. faecalis VRE [7] = test: MIC (CLSI), second E. faecalis VRE line of Table 4; settings: Enterococcus faecalis; E. faecalis VRE (Table 4, second VRE line); read-out: MIC
Protocol: as §3

E. faecalis VRE [8] = test: MIC (CLSI), third E. faecalis VRE line of Table 4; settings: Enterococcus faecalis; E. faecalis VRE (Table 4, third VRE line); read-out: MIC
Protocol: as §3

P. aeruginosa ΔAmex OprM = test: MIC (broth microdilution or agar dilution, CLSI); settings: Pseudomonas aeruginosa
Summary of the method: as §2

SMILES	MIC (E. coli armA)	MIC (E. faecium Line R & VRE)	MIC (E. faecium VRE)	MIC (P. aeruginosa ATCC 27853)	MIC (S. aureus MRSA)	MIC (A. baumannii ATCC 19606)	MIC [1]	MIC (S. aureus ATCC 700699)	MIC [2]	MIC (S. aureus hVISA)	MIC (S. pneumoniae ATCC 6303)	MIC [3]	MIC [4]	MIC [5]	MIC (E. faecalis VRE [6])	MIC (E. faecalis VRE [7])	MIC (E. faecalis VRE [8])	MIC (P. aeruginosa ΔAmex OprM)	other results
CS[C@H]1O[C@H]([C@H](NC(=O)[C@H]2NC[C@@H]3C[C@H](CC(C)C)CCO[C@H]32)[C@H](C)Sc2ccc(CN(C)C)cc2)[C@H](O)[C@H](O)[C@H]1O [FSA-09-04-092, (4S,5aS,8S,8aR)-N-((1S,2S)-2-((4-((Dimethylamino)methyl)phenyl)thio)-1-((2R,3R,4S,5R,6R)-3,4,5-trihydroxy-6-(methylthio)tetrahydro-2H-pyran-2-yl)propyl)-4-isobutyloctahydro-2H-oxepino[2,3-c]pyrrole-8-carboxamide]	4 µg/mL (≈ 6.39 µM)	2 µg/mL (≈ 3.2 µM)	4 µg/mL (≈ 6.39 µM)	64 µg/mL (≈ 102 µM)	0.25 µg/mL (≈ 0.399 µM)	16 µg/mL (≈ 25.6 µM)	1 µg/mL (≈ 1.6 µM)	8 µg/mL (≈ 12.8 µM)	0.25 µg/mL (≈ 0.399 µM)	16 µg/mL (≈ 25.6 µM)	0.06 µg/mL (≈ 0.0959 µM)	0.125 µg/mL (≈ 0.2 µM)	0.06 µg/mL (≈ 0.0959 µM)	0.25 µg/mL (≈ 0.399 µM)	4 µg/mL (≈ 6.39 µM)	8 µg/mL (≈ 12.8 µM)	4 µg/mL (≈ 6.39 µM)		MIC (E. coli ΔTolC): 0.25 µg/mL (≈ 0.399 µM); MIC (E. faecium Clinical VRE): 1 µg/mL (≈ 1.6 µM); MIC (S. aureus cErmA): 4 µg/mL (≈ 6.39 µM); MIC (E. coli ATCC 25922): 4 µg/mL (≈ 6.39 µM); MIC (E. coli LptD): 0.5 µg/mL (≈ 0.799 µM); MIC (E. faecalis ATCC 29212): 0.25 µg/mL (≈ 0.399 µM); MIC (K. oxytoca Clinical): 8 µg/mL (≈ 12.8 µM); MIC (S. aureus ATCC 29213): 0.5 µg/mL (≈ 0.799 µM); MIC (S. pneumoniae ATCC 49619): 0.25 µg/mL (≈ 0.399 µM); MIC (S. pyogenes ATCC 19615): 0.25 µg/mL (≈ 0.399 µM)
C=CC[C@@H]1CCO[C@@H]2[C@H](CN[C@@H]2C(=O)N[C@H]([C@H](C)Cl)[C@H]2OC(SC)[C@H](O)[C@H](O)C2O)C1 (stereo partly drawn) [FSA-10-09-045]	8 µg/mL (≈ 16.7 µM)	16 µg/mL (≈ 33.4 µM)	8 µg/mL (≈ 16.7 µM)	> 128 µg/mL	0.06 µg/mL (≈ 0.125 µM)	16 µg/mL (≈ 33.4 µM)	8 µg/mL (≈ 16.7 µM)	8 µg/mL (≈ 16.7 µM)	0.06 µg/mL (≈ 0.125 µM)	8 µg/mL (≈ 16.7 µM)	0.06 µg/mL (≈ 0.125 µM)	0.5 µg/mL (≈ 1.04 µM)	0.06 µg/mL (≈ 0.125 µM)	1 µg/mL (≈ 2.09 µM)	16 µg/mL (≈ 33.4 µM)	32 µg/mL (≈ 66.8 µM)	8 µg/mL (≈ 16.7 µM)	2 µg/mL (≈ 4.18 µM)	
CCC[C@@H]1CCO[C@@H]2[C@H](CN[C@@H]2C(=O)N[C@H]([C@H](C)Cl)[C@H]2OC(SC)[C@H](O)[C@H](O)C2O)C1 (stereo partly drawn) [FSA-10-09-051]	8 µg/mL (≈ 16.6 µM)	8 µg/mL (≈ 16.6 µM)	4 µg/mL (≈ 8.32 µM)	> 128 µg/mL	0.06 µg/mL (≈ 0.125 µM)	8 µg/mL (≈ 16.6 µM)	4 µg/mL (≈ 8.32 µM)	4 µg/mL (≈ 8.32 µM)	0.06 µg/mL (≈ 0.125 µM)	8 µg/mL (≈ 16.6 µM)	0.06 µg/mL (≈ 0.125 µM)	0.25 µg/mL (≈ 0.52 µM)	0.06 µg/mL (≈ 0.125 µM)	0.5 µg/mL (≈ 1.04 µM)	8 µg/mL (≈ 16.6 µM)	8 µg/mL (≈ 16.6 µM)	2 µg/mL (≈ 4.16 µM)	2 µg/mL (≈ 4.16 µM)	
